{
  "source": "paper PMC12203428",
  "about": "“Discovery of Clonixeril as a Sub-Femtomolar Modulator of the Human STING Receptor” (ACS Central Science, 2025)",
  "key": {"hSTING": {"molecular_target": "hSTING (Homo sapiens, UniProt Q86WV6, H232R)", "assay": "Summary of interaction of CXL with hSTING in vitro and in cellulo", "conditions": "read-out: EC50, first mode of interaction with hSTING"}, "hSTING CTD": {"test_system": "hSTING CTD", "assay": "Differential scanning fluorimetry (thermal shift)", "type": "binding, human", "conditions": "200 μM", "text": "Differential Scanning Fluorimetry – Thermal Shift Experiment\nscreening process for their potential to stabilize the active form of the STING molecule by binding to it. A TSA measures a protein's melting temperature (Tm), at which the protein is 50% denatured. The assay quantifies protein denaturation by measuring the increase in fluorescence of a dye that binds to hydrophobic residues exposed by unfolding of the protein.\nDifferential Scanning Fluorimetry (Thermal Shift) for Binders of STING.\nCompounds selected (57) from computational virtual screening for analysis at 200 μM in the thermal shift assay are\nshown here as green dots with blue diamond indicating the temperature range of denaturation. The red box indicates"}, "[1]": {"test_system": "p-IRF3 in HEK293S cells (hSTING pathway)", "assay": "Phospho-IRF3 Western blot in HEK293S cells with diABZI3", "type": "cell-based, human", "conditions": "100 fM compound, 100 nM diABZI3, preliminary", "experimental": "HEK293T cells transfected with hSTINGWT cells were seeded in a 6-well plate in DMEM\n(supplemented with 10% heat-inactivated fetal bovine serum, 1X Corning Penicillin-Streptomycin\nsolution and 0.01mg/mL Blasticidin). Upon reaching ~80% confluence, cells were pretreated with\nvarying concentrations of CXL in FBS-free DMEM for 2 hours. This was followed by treatment\nwith diABZI3 (100nM) for 1 hour. The cells were scraped, harvested by centrifugation at 1000 x g\nfor 3 mins. The resulting pellet is resuspended in 1X PBS with 1X Halt protease & phosphatase\ninhibitor and 1% NP-40. Cell lysis was performed by probe sonication. The cell lysate is further\ndenatured in 1X SDS loading buffer by boiling for 10 mins and separated by SDS-PAGE (4-20%\ngel). The separated proteins were electrically transferred to a PVDF membranes separately,\nwhich was probed with primary (α-pIRF3, α-IRF3 & α-STING) and secondary (goat anti-rabbit IR\ndye 680 & goat anti-mouse IR dye 800CW) antibodies. The blots were visualized using a LICOR\nImage Analyzer. All the experiments were performed at least in duplicate."}, "[2]": {"test_system": "hSTING oligomerization in HEK293S cells", "assay": "Clear native PAGE of hSTING oligomerization in HEK293S cells", "type": "cell-based, human", "conditions": "CXL 1 h, then 100 nM diABZI3 2 h", "protocol": "To determine whether the results we observed in the DLS experiments could be recapitulated in cellulo, where full-length hSTING is present, we used HEK293T cells transfected with WT hSTING (referred to herein as HEK293S cells) to perform hSTING clear native PAGE experiments. […] Thus, HEK293S cells were harvested following treatment with 100 nM diABZI3 for 2 h, following a 1 h treatment of varying concentrations of CXL.\nInvitrogen NativePAGE Sample Prep Kit Catalog number: BN2008, Invitrogen NativePAGE Running Buffer Kit Catalog number: BN2007 and Invitrogen NativePAGE 4 to 16%, Bis-Tris, 1.0 mm, Mini Protein Gels, 10 wells, (Cat. # BN1002BOX). Cells were harvested and CXL was added at varying concentrations for 1 h and followed by 2 h of diABZI3 at 100 nM. To the mammalian cells harvested in 1 mL cell culture, add 0.2 mL lysis buffer containing 10 mM HEPES, pH 7.5,150 mM NaCl, 5% glycerol, protease inhibitor cocktail, and 0.025% digitonin. Cells were lysed by sonicating for two rounds of 15 s each while cooling the sample on ice. Centrifuge the lysate at 20,000g for 10 min at 4 °C. Aliquot the supernatant into microcentrifuge tubes. To prepare the sample for loading a total volume of 20 μL NativePAGE including Sample Buffer (4×) 5 μLSTING supernatant, 14.5 μL and Ponceau S-dye: 0.5 μL. 1X NativePAGE Anode Buffer: Add 30 mL of 20X NativePAGE Running Buffer to 570 mL of deionized water. […]"}, "[3]": {"assay": "Hydrolysis of clonixeril to clonixin by HPLC", "type": "physicochemical", "protocol": "To determine clonixeril’s hydrolytic stability and evaluate its potential as an oral drug, an aqueous solution was concentrated for analysis at 20 µM. The sample was analyzed by HPLC using an […]\nThe UV spectra of these peaks were compared by diode array and found to be identical with maximum absorbance at 280nm and 343nm. […]\nthe minor first peak matched the molecular weight of clonixin (M+H)+ and the second major peak matched the molecular weight of clonixeril (M+H)+. Data was generated by measuring the ratio between the two peaks. Hydrolysis of clonixeril to clonixin was measured by HPLC over seven days using a 20 µM aqueous solution.\n96.8% clonixeril (Figure S4B). Most of the hydrolysis occurred within the first two days at an average rate of […], and then slowed down to an average rate of 0.07% per hour by day seven (Figure S4B). The rate decrease correlated with an observable decrease in solution pH as a product of hydrolysis. Further samples solubilized in pH 2.00 phosphoric acid and pH 1.99 hydrochloric acid confirmed that the rate decreases to an average of 0.014% per hour over […]\na seven-day period. […]"}, "inflammation in rats": {"test_system": "inflammation in rats", "parameters": "method as in not given", "conditions": "30–300 mg/kg, ref not given, cited from earlier work"}, "[4]": {"molecular_target": "T1, hSTING CTD (STING R232 variant) (Homo sapiens, UniProt Q86WV6, H232R)", "T1 construct": "6X-His tagged hSTING^WT, R232 variant, CTD protein was purchased; purchased Invivogen (USA) or Cayman Chemicals (USA)", "T1 sequence (Q86WV6 153-340 H232R)": "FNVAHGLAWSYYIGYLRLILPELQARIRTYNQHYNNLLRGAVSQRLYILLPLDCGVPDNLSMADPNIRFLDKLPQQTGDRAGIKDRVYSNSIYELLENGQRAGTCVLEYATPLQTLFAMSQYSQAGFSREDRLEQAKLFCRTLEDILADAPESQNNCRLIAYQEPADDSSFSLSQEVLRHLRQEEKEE", "assay": "Microscale thermophoresis", "type": "binding", "conditions": "Log inhibitor versus response fit", "protocol": "Small molecule affinities at subpicomolar concentrations are typically difficult to determine by MST due to the inability of the detector to measure differential movement of proteins when largely disproportionate ratios of protein to ligand are involved. […] Generally, an IC50 correlates well with a K D when a small molecule competes for binding with a natural substrate for a target protein.\nThe resulting mixture was centrifuged at 12,000 x RPM 10 min prior to use. […] The samples were run again at 30- and 45 min. Detection of the protein was performed using the blue detection channel with excitation power set to 100% and MST set to high allowing 3 s prior to MST on to check for initial fluorescence differences, 35 s for thermophoresis, and 3 s for regeneration after MST off. Analysis was performed using M.O. Affinity Analysis Software with difference between initial fluorescence measured in the first 5 s as compared with thermophoresis at 30 s at 16 different analyte concentrations ranging from 100 μM to 100 zM and exported into Graphpad Prism v.8 using a Log inhibitor versus response for parameter fit."}, "SUMO-hSTING CTD": {"molecular_target": "SUMO-hSTING CTD (Homo sapiens, UniProt Q86WV6, H232R)", "sequence (Q86WV6 155-343 H232R)": "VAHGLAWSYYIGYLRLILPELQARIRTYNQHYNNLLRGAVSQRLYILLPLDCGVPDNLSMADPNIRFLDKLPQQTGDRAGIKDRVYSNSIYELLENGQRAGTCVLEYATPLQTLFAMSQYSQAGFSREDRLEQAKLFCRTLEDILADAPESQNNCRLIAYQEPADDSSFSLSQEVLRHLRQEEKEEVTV", "assay": "Dynamic light scattering of STING oligomerization", "experimental": "(B) DLS was performed for 2 h (n = 960 measurements) with 50 nM STING exposed to analytes. […] Blue blocks indicate size counts as a percentage to overall mass over selected mass ranges. […] Measurements were made using a Malvern Zetasizer Nano ZS set to 40 measurements at 1 s/measurement and 24 runs."}},
  "data": [
    {"smiles": "Cc1c(Cl)cccc1Nc1ncccc1C(=O)OCC(O)CO", "note": "(centres unmarked) [CXL, clonixeril]", "values": [
      {"measurement": "EC50", "setting": "hSTING", "result": "> 1", "unit": "nM"},
      {"measurement": "Thermal shift", "setting": "hSTING CTD", "result": "negative thermal shift"},
      {"measurement": "Effect on p-IRF3", "setting": "[1]", "result": "potent antagonistic behavior"},
      {"measurement": "Effect on hSTING oligomerization", "setting": "[2]", "result": "reduces hSTING oligomerization at concentrations down to attomolar levels"},
      {"measurement": "Initial hydrolysis, clonixeril", "setting": "[3]; 20 µM aqueous solution", "result": 96.8, "unit": "%"},
      {"measurement": "Initial hydrolysis, clonixin", "setting": "[3]; 20 µM aqueous solution", "result": 3.2, "unit": "%"},
      {"measurement": "Initial hydrolysis, clonixeril", "setting": "[3]; 5% sodium bicarbonate", "result": 88.2, "unit": "%"},
      {"measurement": "Initial hydrolysis, clonixin", "setting": "[3]; 5% sodium bicarbonate", "result": 11.8, "unit": "%"},
      {"measurement": "Average rate of hydrolysis", "setting": "[3]; aqueous solution, by day seven", "result": 0.07, "unit": "% per hour"},
      {"measurement": "Average rate of hydrolysis", "setting": "[3]; aqueous solution, first two days", "result": 0.13, "unit": "% per hour"},
      {"measurement": "Average rate of hydrolysis", "setting": "[3]; pH 2.00 phosphoric acid and pH 1.99 hydrochloric acid, seven-day period", "result": 0.014, "unit": "% per hour"},
      {"measurement": "Hydrolysis", "setting": "[3]; pH of 1.0", "result": "relatively slow hydrolysis"},
      {"measurement": "Hydrolysis", "setting": "[3]; pH=2.0", "result": "surprisingly slow"},
      {"measurement": "Ulcerogenic effects", "setting": "inflammation in rats", "result": "without producing significant ulcerogenic effects"},
      {"measurement": "Anti-inflammatory effect", "setting": "inflammation in rats; oral", "result": "anti-inflammatory effects"},
      {"measurement": "Hillslope (MST fit)", "setting": "[4]", "result": "−1.669"},
      {"measurement": "Lowest concentration at which effect on oligomerization is observed", "setting": "SUMO-hSTING CTD; 50 nM STING, 50 nM 2′,3′-cGAMP", "result": 100, "unit": "aM"},
      {"measurement": "Reduction in 2′,3′-cGAMP driven SUMO-hSTING CTD oligomerization", "setting": "SUMO-hSTING CTD; 50 nM STING, 50 nM 2′,3′-cGAMP", "result": "alters the ability of SUMO-hSTING CTD to oligomerize"},
      {"measurement": "SUMO-hSTING CTD oligomerization without 2′,3′-cGAMP present", "setting": "SUMO-hSTING CTD; 50 nM STING, analyte alone", "result": "moderate amount of oligomerization"},
      {"measurement": "Size of protein aggregates", "setting": "SUMO-hSTING CTD; 100 aM, 50 nM STING CTD, reviewer's reading", "result": "about 75 nm"}
    ]}
  ]
}
